One data set concerns the target T1, TRPV1 (Rattus norvegicus, UniProt O35433).
T1 construct: Ca^2+ Fluorescence Measurements in Cultured Rat Trigeminal Ganglia; endogenous in cells; host or cells: cultured rat trigeminal ganglion neurons (primary culture)
Put plainly: Ca2+ fluorescence measurements in cultured rat trigeminal ganglia (capsaicin-evoked [Ca2+]i mobilization). Particulars: 30 nM capsaicin, rat trigeminal neuron cells; read-out: IC50 of inhibiting capsaicin-evoked [Ca2+]i mobilization. The class given is cell-based. The method, then: The calibration curve was determined using a buffer containing Fura-2-AM-ester and definite concentrations of free Ca^2+. This curve was then used to convert the data obtained from F340/F380 ratio to [Ca^2+]i (nM) (Kudo, Y). The effects of pretreatments with compounds 6a-6m on the increase in [Ca^2]i produced by 30 nM capsaicin were studied.
Capsaicin (30 nM) increased [Ca^2+]i in the vast majority (95%) of rat trigeminal neuron cells, which were therefore identified as TRPV1-expressing neurons.

The target of a further data set is T2, vanilloid TRPV1 receptor (Rattus norvegicus, UniProt O35433).
T2 construct: the spinal cord was removed and disrupted using a Polytron tissue homogenizer; from tissue; host or cells: spinal cord of male Sprague-Dawley rats (membranes)
Put plainly: [3H]RTX radioligand binding assay in rat spinal cord membranes. Particulars: displacement of [3H]RTX (0.4 nM), 37° C., 60 min. The procedure:
Male Sprague-Dawley rats with body weight between 250 to 350 g were used. For binding assays the rats were decapitated under anesthesia and the spinal cord was removed and disrupted using a Polytron tissue homogenizer in ice cold buffer containing 5 mM KCl, 5.8 mM NaCl, 0.75 mM CaCl2, 2 mM MgCl2, 320 mM sucrose, 10 mM Hepes, pH 8.6 (Szallasi and Blunberg, 1992; 1993). In competition experiments, the membranes were incubated at 37° C. for 60 min with [^3H]RTX (0.4 nM) and with increasing concentrations of test compounds in the range from 0.1 nM to 3 μM. Non-specific binding was evaluated in the presence of 1 μM RTX. Saturation and competition studies were analyzed with the Ligand program (Bradford, 1976; Munson and Rodbard, 1980).
Compounds 6a-6m displaced [^3H]RTX from its binding site in rat spinal cord membranes at low concentrations, as indicated by the Ki values reported in Table 1.

Data set [1] can be described thus: Preliminary cassette pharmacokinetic study in catheterized conscious rats. The class given is in vivo. The settings on record: plasma; rat, oral, cassette dosing; read-out: Pharmacokinetics in Rat Oral t1/2. The procedure:
(§1) LogD Values at pH=7.0 were calculated in silico, while the in vitro tests analysed: • metabolic stability in cryopreserved human hepatocytes; • cytotoxicity on Hep G2 cells; • cassette pharmacokinetics in rat.
Compounds were administered together to rats. The compounds were stored at −20° C. when not used. The formulation, route of administration, plasma samples identification and pharmacokinetic analysis were performed according to standard protocols (Raynaud, F I et al, 2004; Manitpisitkul, P. et al., 2004; Singh S. et al., 2006).

In data set [2] the test system is capsaicin-induced secondary allodynia. The data set is described as follows: Capsaicin-induced secondary allodynia in rat. The settings on record: 30 μmol/kg p.o., 2 hours prior to capsaicin, 90 min after capsaicin challenge. The class given is in vivo. The method, then: Capsaicin (5 nmols/50 μl/paw) was injected in the plantar surface of the glabrous skin of the right paw of rats anesthetized with diethyl ether (Chaplan et al., 1994). Compounds 6c and 6d were orally administrated 2 hours prior to capsaicin injection. Tactile allodynia was evaluated 90 min after capsaicin challenge. In a more extended study, compounds 6c and 6d were tested against capsaicin-induced secondary allodynia in rats.

The nature of data set [3]: Cytotoxicity on Hep G2 cells. The class given is cell-based. Particulars: human. The procedure: as §1
The cells were cultured for 3 days, trypsinized and re-suspended in 20 ml of culture medium. The cells were then counted and diluted to obtain a final concentration suitable for seeding 40.000 cells/well in 96-well cell culture plates (200 μl/well).
The cells were seeded in columns 1 to 11 (column 12 contained medium without cells), then placed for 16-24 hours at 37° C. with 5% of CO2.

For data set [4] the following is noted: value from Ref. 8 (Rami et al. 2006); cited from earlier work.

T1 sequence (O35433 whole entry): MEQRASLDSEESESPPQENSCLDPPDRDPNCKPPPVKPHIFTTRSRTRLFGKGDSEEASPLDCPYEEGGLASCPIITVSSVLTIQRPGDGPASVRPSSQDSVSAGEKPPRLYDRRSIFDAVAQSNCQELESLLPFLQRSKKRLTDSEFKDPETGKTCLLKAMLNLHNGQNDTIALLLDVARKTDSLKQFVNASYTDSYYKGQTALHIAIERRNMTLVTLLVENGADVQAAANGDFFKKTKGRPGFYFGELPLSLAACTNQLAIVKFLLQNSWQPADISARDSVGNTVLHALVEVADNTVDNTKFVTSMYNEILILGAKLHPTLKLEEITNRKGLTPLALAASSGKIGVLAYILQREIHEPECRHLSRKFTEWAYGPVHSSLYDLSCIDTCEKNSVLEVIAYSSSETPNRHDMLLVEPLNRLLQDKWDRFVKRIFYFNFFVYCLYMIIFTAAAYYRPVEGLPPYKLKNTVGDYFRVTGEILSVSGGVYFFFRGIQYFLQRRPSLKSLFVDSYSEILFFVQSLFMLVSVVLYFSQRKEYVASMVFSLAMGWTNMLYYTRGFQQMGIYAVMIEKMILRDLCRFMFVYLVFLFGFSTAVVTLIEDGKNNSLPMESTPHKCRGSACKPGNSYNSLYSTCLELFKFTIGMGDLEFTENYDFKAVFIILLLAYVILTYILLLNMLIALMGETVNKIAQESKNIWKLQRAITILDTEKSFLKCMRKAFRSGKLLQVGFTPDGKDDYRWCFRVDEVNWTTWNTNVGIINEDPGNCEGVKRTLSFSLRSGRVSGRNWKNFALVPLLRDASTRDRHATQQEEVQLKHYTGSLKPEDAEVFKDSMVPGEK
T2 sequence (O35433 whole entry): as above

Take `COc1cc(CNC(=O)NCc2ccc(C(F)(F)F)cc2)c(Br)cc1OC[C@@H](O)CO` [(S)-(+)6d]: the IC50 on TRPV1 is over 1000 nM.

`COc1cc(CNC(=O)NCc2ccc(C(F)(F)F)cc2)c(-c2ccccc2)cc1OCC(O)CO` (stereo not shown) [Compound 6i, 1-[4-(2,3-dihydroxypropoxy)-2-phenyl-5-methoxybenzyl]-3-[4-(trifluoromethyl)-benzyl]urea] displayed a Ki at vanilloid TRPV1 receptor of 273 nM. Besides, the IC50 on TRPV1 is over 1000 nM.

`COc1cc(CNC(=O)NCc2ccc(C(F)(F)F)cc2)c(Cl)cc1OCCCO` [Compound 6e] displayed an inhibition constant (Ki) on vanilloid TRPV1 receptor of over 1000 nM. Also, the IC50 at TRPV1 was over 1000 nM.

Take `COc1cc(CNC(=O)NCc2ccc(C(F)(F)F)cc2)c(Br)cc1OC[C@H](O)CO` [(R)-(−)6d, 1-[4-((R)-(−)-2,3-dihydroxypropoxy)-2-bromo-5-methoxybenzyl]-3-[4-(trifluoromethyl)-benzyl]urea]: the half-inhibitory concentration (IC50) at TRPV1 came to 53 nM. Further, in data set [1], the half-life amounted to 4.43 h.

For `COc1cc(CNC(=O)NCc2ccc(C(F)(F)F)cc2)c(Cl)cc1OCC(O)CO` (racemic) [Compound 6c, 1-[4-(2,3-Dihydroxypropoxy)-2-chloro-5-methoxybenzyl]-3-[4-(trifluoromethyl)-benzyl]urea], the Ki at vanilloid TRPV1 receptor stood at 60 nM. In addition, the IC50 turned out to be 10.2 nM at TRPV1 and 52000 nM in data set [3]. The “% of inhibition of the pro-allodinic effect of capsaicin” value in data set [2] is reported as 53.1%. For the same molecule, the half-life in data set [1] is 1.3 h.

In the case of `COc1cc(CNC(=O)NCc2ccc(C(F)(F)F)cc2)c(Br)cc1OCC(O)CO` (racemic) [Compound 6d, 1-[4-(2,3-Dihydroxypropoxy)-2-bromo-5-methoxybenzyl]-3-[4-(trifluoromethyl)-benzyl]urea], the affinity on vanilloid TRPV1 receptor corresponds to a Ki of 86 nM. Further, the IC50 at TRPV1 worked out at 80 nM; in data set [3] it was 70000 nM. Also, the “% of inhibition of the pro-allodinic effect of capsaicin” value in data set [2] is reported as 47.9%. For the same molecule, the half-life in data set [1] worked out at 1.08 h.

At vanilloid TRPV1 receptor, `COc1cc(CNC(=O)NCc2ccc(C(F)(F)F)cc2)c(Br)cc1OCCO` [Compound 6h, 1-[4-(2-Hydroxyethoxy)-2-bromo-5-methoxybenzyl]-3-[4-(trifluoromethyl)-benzyl]urea] displayed a Ki of 150 nM. Moreover, the IC50 at TRPV1 is 119 nM.

Take `COc1cc(CNC(=O)NCc2ccc(C(C)(C)C)cc2)c(Cl)cc1OCCCO` [Compound 6f]: at vanilloid TRPV1 receptor, the Ki amounted to 253 nM. For the same molecule, the concentration for half-maximal inhibition (IC50) on TRPV1 amounted to 500 nM.

As to `COc1cc(CNC(=O)NCc2ccc(C(F)(F)F)cc2)c(Cl)cc1OC[C@@H](O)CO` [(S)-(+)6c], the IC50 on TRPV1 was over 1000 nM.

In turn, `COc1cc(CNC(=O)NCc2ccc(C(C)(C)C)cc2)c(Cl)cc1OCCO` [Compound 6a, 1-[4-(2-hydroxyethoxy)-2-chloro-5-methoxybenzyl]-3-[4-(tert-butyl)-benzyl]urea] had a Ki at vanilloid TRPV1 receptor of 175 nM. On TRPV1, the IC50 stood at 859 nM.

As for `COc1cc(CNC(=O)NCc2ccc(C(F)(F)F)cc2)c(Cl)cc1OC[C@H](O)CO` [(R)-(−)6c, 1-[4-((R)-(−)-2,3-dihydroxypropoxy)-2-chloro-5-methoxybenzyl]-3-[4-(trifluoromethyl)-benzyl]urea], the IC50 on TRPV1 came to 7 nM. Also, the half-life in data set [1] was determined as 7.7 h.

Consider `COc1cc(CNC(=O)NCc2ccc(C(F)(F)F)cc2)c(Cl)cc1OCCO` [Compound 6g, 1-[4-(2-hydroxyethoxy)-2-chloro-5-methoxybenzyl]-3-[4-(trifluoromethyl)-benzyl]urea], for which the Ki at vanilloid TRPV1 receptor was over 1000 nM. For the same molecule, the IC50 on TRPV1 was 164 nM.

On vanilloid TRPV1 receptor, `COc1cc(CNC(=O)NCc2ccc(C(F)(F)F)cc2)c(-c2cccnc2)cc1OCC(O)CO` (stereo not shown) [Compound 6l, 1-[4-(2,3-dihydroxypropoxy)-2-(pyridin-3-yl)-5-methoxybenzyl]-3-[4-(trifluoromethyl)-benzyl]urea] yielded a Ki of 172 nM. For the same molecule, on TRPV1, the 50% inhibitory concentration (IC50) was over 1000 nM.

`COc1cc(CNC(=O)NCc2ccc(C(F)(F)F)cc2)c(-c2ccc(Cl)cc2)cc1OC[C@H](O)CO` [Compound 6m, 1-[4-(2,3-dihydroxypropoxy)-2-(4-chloro)phenyl-5-methoxybenzyl]-3-[4-(trifluoromethyl)-benzyl]urea]: the melting point amounted to 174 °C. On vanilloid TRPV1 receptor, this molecule gave a Ki of 117 nM.

Take `O=C(Nc1ccccc1Br)N[C@@H]1CCN(c2ccc(C(F)(F)F)cn2)C1` [SB-705498, reference compound]: in data set [3], the half-inhibitory concentration (IC50) was determined as 20300 nM. The “Pharmacokinetics in Rat Oral t1/2” value in data set [4] is listed as 180 ^Ref. 8 min.

(Values after patent publication US7750049B2, “O-substituted-dibenzyl urea-derivatives as TRPV1 receptor antagonists” (Pharmeste S.R.L., priority 2006, dated 2010).)
